This note sets out measurements from PubChem BioAssay AID256 (DTP/NCI, 2004).

SMILES strings stand for the structures. Several values for one entry are separate records, joined by “and”; a condition that tells them apart may be missing. Equal entries are not always repeated. Toxic doses and inconclusive results are not listed.

The assay concerns CD2F1 mice, L1210 leukemia ip, survival T/C. The assay can be described thus: NCI In Vivo Anticancer Drug Screen. Data for tumor model L1210 Leukemia (intraperitoneal) in CD2F1 (CDF1) mice. As to conditions: higher = longer survival. The method in brief: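 Antitumor effect is scored in animals hosting a serially transplanted tumor. Values compare compound-dosed animals against vehicle-only controls as a simple quotient.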

The mark [1] stands for this setting: endpoint: mean survival time, dose: 100.0 mg/kg/injection, schedule: Q01DX009 (ip), vehicle: saline with Tween-80.
[2] abbreviates: endpoint: mean survival time, dose: 100.0 mg/kg/injection, schedule: Q04DX003 (ip), vehicle: saline with Tween-80.
[3] abbreviates: endpoint: mean survival time, dose: 200.0 mg/kg/injection, schedule: Q01DX009 (ip), vehicle: saline with Tween-80.
[4] abbreviates: endpoint: mean survival time, dose: 200.0 mg/kg/injection, schedule: Q04DX003 (ip), vehicle: saline with Tween-80.
The mark [5] stands for this setting: endpoint: mean survival time, dose: 400.0 mg/kg/injection, schedule: Q01DX009 (ip), vehicle: saline with Tween-80.
[6] abbreviates: endpoint: mean survival time, dose: 400.0 mg/kg/injection, schedule: Q04DX003 (ip), vehicle: saline with Tween-80.
The mark [7] stands for this setting: endpoint: mean survival time, dose: 100.0 mg/kg/injection, schedule: Q04DX002 (ip), vehicle: saline with Tween-80.
The mark [8] stands for this setting: endpoint: mean survival time, dose: 200.0 mg/kg/injection, schedule: Q04DX002 (ip), vehicle: saline with Tween-80.
Setting [9] is: endpoint: mean survival time, dose: 400.0 mg/kg/injection, schedule: Q04DX002 (ip), vehicle: saline with Tween-80.
Where [10] appears, read: endpoint: mean survival time, dose: 50.0 mg/kg/injection, schedule: Q01DX009 (ip), vehicle: saline with Tween-80.
Where [11] appears, read: endpoint: mean survival time, dose: 12.5 mg/kg/injection, schedule: Q01DX009 (ip), vehicle: saline with Tween-80.

As for `COc1cc(C2c3cc4c(cc3[C@@H](OC3OC5CO[C@@H](C)OC5C(O)C3O)[C@H]3COC(=O)C23)OCO4)cc(OC)c1OC` (some centres not stated), the T/C was 164 % of control (endpoint: median survival time, dose: 50.0 mg/kg/injection, schedule: Q01DX005 (ip), vehicle: saline); 161 % of control (endpoint: median survival time, dose: 60.0 mg/kg/injection, schedule: Q01DX009 (ip), vehicle: saline); 211 % of control (endpoint: median survival time, dose: 100.0 mg/kg/injection, schedule: Q01DX005 (ip), vehicle: saline); 277 % of control (endpoint: median survival time, dose: 100.0 mg/kg/injection, schedule: Q01DX009 (ip), vehicle: saline); 297 % of control (endpoint: median survival time, dose: 166.67 mg/kg/injection, schedule: Q01DX009 (ip), vehicle: saline); 211 % of control (endpoint: median survival time, dose: 200.0 mg/kg/injection, schedule: Q01DX005 (ip), vehicle: saline). Further, for the setting “endpoint: median survival time, dose: 277.78 mg/kg/injection, schedule: Q01DX009 (ip), vehicle: saline”, the T/C was 86 % of control.

For `C=C(C)CNC1=C(C)C(=O)C2=C(C1=O)[C@H](COC(N)=O)[C@]1(OC)[C@@H]3N[C@@H]3CN21`, the T/C reads like this: (endpoint: mean survival time, dose: 1.5 mg/kg/injection, schedule: Q01DX001 (ip), vehicle: distilled water + Tween-80) 119 % of control; (endpoint: mean survival time, dose: 3.0 mg/kg/injection, schedule: Q01DX001 (ip), vehicle: distilled water + Tween-80) 117 % of control; (endpoint: mean survival time, dose: 12.0 mg/kg/injection, schedule: Q01DX001 (ip), vehicle: distilled water + Tween-80) 101 % of control.

For the compound `O=C(CC(O)(C(F)(F)F)C(F)(F)F)c1cccc(Cl)c1`, the T/C is, setting by setting: under setting [1], 107 % of control; under setting [2], 105 % of control; under setting [3], 103 % of control; under setting [4], 105 % of control; under setting [5], 119 % of control; under setting [6], 110 % of control.

Turning to `CC(C)(C)CC(C)(C)c1ccc(OCCOc2ccc(C(=O)NCCNC(=O)c3ccc4ccccc4c3O)cc2N)cc1`, the T/C under setting [3] is 89 % of control and the T/C under setting [5] was 89 % of control.

In the case of `C=C1C(=O)OC2CC1C(OC(C)=O)CC1(C)OC1CCC1(C)OC1CCC2(C)O` (configuration not stated), the T/C is, setting by setting: (endpoint: mean survival time, dose: 6.25 mg/kg/injection, schedule: Q01DX009 (ip), vehicle: Klucel (hydroxypropylcellulose) (HPC)) 102 % of control; (endpoint: mean survival time, dose: 12.5 mg/kg/injection, schedule: Q01DX009 (ip), vehicle: Klucel (hydroxypropylcellulose) (HPC)) 107 % of control; (endpoint: mean survival time, dose: 25.0 mg/kg/injection, schedule: Q01DX009 (ip), vehicle: Klucel (hydroxypropylcellulose) (HPC)) 105 % of control.

`Oc1ccc(/C=N/NC(=S)Nc2cccnc2)nc1`: the T/C under setting [7] is 87 % of control, the T/C under setting [8] is 87 % of control and the T/C under setting [9] was 91 % of control.

For the compound `S=C1SCCS1`, the T/C is 98 % of control (endpoint: mean survival time, dose: 100.0 mg/kg/injection, schedule: Q04DX003 (ip), vehicle: saline sonified); 107 % of control (endpoint: mean survival time, dose: 200.0 mg/kg/injection, schedule: Q04DX003 (ip), vehicle: saline sonified); 89 % of control (endpoint: mean survival time, dose: 400.0 mg/kg/injection, schedule: Q04DX003 (ip), vehicle: saline sonified).

As to `CCOC(=O)c1ncn(C2OC(COC(=O)c3ccccc3)C(OC(=O)c3ccccc3)C2OC(=O)c2ccccc2)c1C` (configuration not stated), the T/C (endpoint: median survival time, dose: 48.9 mg/kg/injection, schedule: Q01DX005 (ip), vehicle: saline with Tween-80) is 98 % of control; the T/C (endpoint: median survival time, dose: 97.8 mg/kg/injection, schedule: Q01DX005 (ip), vehicle: saline with Tween-80) was 100 % of control; the T/C (endpoint: median survival time, dose: 195.6 mg/kg/injection, schedule: Q01DX005 (ip), vehicle: saline with Tween-80) is 90 % of control.

As to `FC(F)(F)c1ccc2c(c1)Nc1ccccc1S2`, the T/C runs as follows: (endpoint: mean survival time, dose: 12.5 mg/kg/injection, schedule: Q04DX003 (ip), vehicle: saline) 96 % of control and 98 % of control; (endpoint: mean survival time, dose: 25.0 mg/kg/injection, schedule: Q04DX003 (ip), vehicle: saline) 96 % of control and 101 % of control; (endpoint: mean survival time, dose: 50.0 mg/kg/injection, schedule: Q04DX003 (ip), vehicle: saline) 101 % of control and 104 % of control; (endpoint: mean survival time, dose: 100.0 mg/kg/injection, schedule: Q04DX003 (ip), vehicle: saline) 101 % of control and 104 % of control; (endpoint: mean survival time, dose: 200.0 mg/kg/injection, schedule: Q04DX003 (ip), vehicle: saline) 96 % of control and 98 % of control.

For the compound `C/C=C\c1ccc(OCCOC(=O)Nc2ccc(C)cc2C)c(OC)c1`, the T/C is 104 % of control under setting [10], 96 % of control under setting [1] and 93 % of control under setting [3].

For `CN(C)c1ccc(N=Nc2ccc(CI)cc2)cc1`, the T/C (endpoint: mean survival time, dose: 25.0 mg/kg/injection, schedule: Q04DX003 (ip), vehicle: Klucel (hydroxypropylcellulose) (HPC)) is 89 % of control; the T/C (endpoint: mean survival time, dose: 50.0 mg/kg/injection, schedule: Q04DX003 (ip), vehicle: Klucel (hydroxypropylcellulose) (HPC)) is 112 % of control; the T/C (endpoint: mean survival time, dose: 100.0 mg/kg/injection, schedule: Q04DX003 (ip), vehicle: Klucel (hydroxypropylcellulose) (HPC)) was 96 % of control; the T/C (endpoint: mean survival time, dose: 200.0 mg/kg/injection, schedule: Q04DX003 (ip), vehicle: Klucel (hydroxypropylcellulose) (HPC)) was 93 % of control.

With `O=C1c2ccccc2C(Cl)=C(Cl)C1(Cl)Cl`, the T/C is 92 % of control under setting [11]; 101 % of control (endpoint: mean survival time, dose: 25.0 mg/kg/injection, schedule: Q01DX009 (ip), vehicle: saline with Tween-80); 101 % of control under setting [10]; 96 % of control under setting [2]; 100 % of control under setting [6].

For the compound `CCCC/C=C\C(=O)OCC`, the T/C under setting [10] was 104 % of control, the T/C under setting [1] is 101 % of control and the T/C under setting [3] is 104 % of control.

As to `CCOC(=O)c1cnc[nH]1`, the T/C under setting [7] is 103 % of control, the T/C under setting [8] was 95 % of control and the T/C under setting [9] was 103 % of control.

On to `NC(=O)/C=C/C(=O)c1c(Cl)cccc1Cl`, for which the T/C was 98 % of control (endpoint: mean survival time, dose: 0.78 mg/kg/injection, schedule: Q01DX009 (ip), vehicle: saline with Tween-80); 97 % of control (endpoint: mean survival time, dose: 0.79 mg/kg/injection, schedule: Q01DX009 (ip), vehicle: saline with Tween-80); 95 % of control and 97 % of control (endpoint: mean survival time, dose: 1.56 mg/kg/injection, schedule: Q01DX009 (ip), vehicle: saline with Tween-80); 91 % of control and 104 % of control (endpoint: mean survival time, dose: 3.12 mg/kg/injection, schedule: Q01DX009 (ip), vehicle: saline with Tween-80); 97 % of control and 101 % of control (endpoint: mean survival time, dose: 6.25 mg/kg/injection, schedule: Q01DX009 (ip), vehicle: saline with Tween-80); 98 % of control and 100 % of control under setting [11].

As to `CN=NNc1ccc(C(N)=O)cc1`, the T/C reads like this: (endpoint: mean survival time, dose: 18.75 mg/kg/injection, schedule: Q01DX009 (ip), vehicle: saline) 100 % of control; (endpoint: mean survival time, dose: 37.5 mg/kg/injection, schedule: Q01DX009 (ip), vehicle: saline) 109 % of control; (endpoint: mean survival time, dose: 75.0 mg/kg/injection, schedule: Q01DX009 (ip), vehicle: saline) 101 % of control; (endpoint: mean survival time, dose: 150.0 mg/kg/injection, schedule: Q01DX009 (ip), vehicle: saline) 96 % of control; (endpoint: mean survival time, dose: 300.0 mg/kg/injection, schedule: Q01DX009 (ip), vehicle: saline) 100 % of control.

In the case of `O=c1[nH]c2ccccc2c(=O)c2ccccc12`, the T/C runs as follows: under setting [1], 90 % of control; under setting [2], 101 % of control; under setting [3], 94 % of control; under setting [4], 97 % of control; under setting [5], 107 % of control; under setting [6], 101 % of control.

Take `CCCCCCC[CH2][Sn]1([CH2]CCCCCCC)[O]C2C(CO)OC(n3ccc(=O)[nH]c3=O)C2[O]1` (configuration not stated): the T/C reads like this: (endpoint: mean survival time, dose: 12.5 mg/kg/injection, schedule: Q01DX005 (ip), vehicle: other) 100 % of control; (endpoint: mean survival time, dose: 25.0 mg/kg/injection, schedule: Q01DX005 (ip), vehicle: other) 90 % of control; (endpoint: mean survival time, dose: 50.0 mg/kg/injection, schedule: Q01DX005 (ip), vehicle: other) 91 % of control; (endpoint: mean survival time, dose: 100.0 mg/kg/injection, schedule: Q01DX005 (ip), vehicle: other) 94 % of control; (endpoint: mean survival time, dose: 200.0 mg/kg/injection, schedule: Q01DX005 (ip), vehicle: other) 91 % of control.

In the case of `COc1cc(NCCCCNC(C)C)c2ncccc2c1`, the T/C (endpoint: mean survival time, dose: 75.0 mg/kg/injection, schedule: Q01DX001 (ip), vehicle: saline) is 95 % of control.

On to `Cc1nc2c(N)nn(C)c2nc1C`, for which the T/C under setting [2] was 95 % of control, the T/C under setting [4] is 101 % of control and the T/C under setting [6] is 101 % of control.

For the compound `O=c1[nH]cnc2ccccc12`, the T/C runs as follows: under setting [7], 96 % of control; under setting [8], 101 % of control; under setting [9], 104 % of control.
